Common to all, as to format: cell-based, Acer pseudoplatanus L.
One assay concerns papain (EC 3.4.22.2). Kind of assay: Induction of a thiol-protease (papain) inhibitor in elicited cells. The conditions noted are these: 50 nM elicitor; for Papain inhibitor potential, early reaction: after 30 minutes; for Papain inhibitor potential, late reaction: after 42 hours. As for the experimental part:
Vegetable Material: Acer pseudoplatanus L. Cells in Suspension
Test: 2.10^6 cells of Acer pseudoplatanus L. were elicited by 50 nM of 2′-fucosyl lactose (compound A) or by 50 nM of methyl α-L-Fuc (1→2)β-D-Gal (1→2)β-D-Xyl trisaccharide (compound B) (synthesized according to Lopez et al., 1994) for 30 minutes or for 42 hours. Inhibitors of protease (IP) were prepared according to the protocol of Walker-Simmons (1977) starting from elicited or non-elicited cells. It was verified that the viability of the cells was maintained at more than 85% for the whole duration of the experiment.
Papain activity assay: the reaction medium contains an aliquot of IP extract (equivalent to 1 or 2 μg of proteins) in sodium phosphate citrate buffer (0.1M) pH 6 enriched with cysteine-HCl (5 mM), papain (EC 3.4.22.2) (0.48 units), p-nitroanilide N-α-benzoyl-D-L-arginine (BAPNA) (0.27 mM). The activity assay is based on the absorbance measurement at 410 nm. The reaction rate is given by ΔA410 min^−1.
Evaluation of the experimental data: for a given sample, the activity of an IP inhibitor isolated from this sample is estimated by developing the protease kinetics (recording at 410 nm for IO minutes in the presence or not in the presence of a variable quantity of inhibitor). The experimental conditions adopted (incubation time, substrate, enzyme and IP extract concentrations) are those which lead to linear and reproducible kinetics. The initial reaction rate is the slope α(A410 minutes^−1) of a curve A410=f(t). For a given sample, at least three curves are plotted and the initial rate is deduced by linear regression. The protease activity modulation capacity is expressed as a % of the control activity (protease activity without IP inhibitor).
The elicitation response is evaluated according to the papain inhibition measured in the presence of a protease inhibitor prepared from cells elicited by 2′ fucosyl lactose (2A) or by methyl α-L-Fuc (12) β-D-Gal (12) β-D-Xyl trisaccharide (2B); the results are expressed as a % of the control activity (papain activity in the non-elicited cells measured without inhibitor).

In assay [1] the test system is 1,4 β-D-glucanase (EC 3.2.1.4). Kind of assay: Induction of a 1,4 β-D-glucanase response in elicited cells. The following applies: 50 nM elicitor; for 1,4 β-D-glucanase response R: 42 hours; for 1,4 β-D-glucanase early response R: after 20 minutes. As for the experimental part:
(§1) Vegetable material: Acer pseudoplatanus L Cells in Suspension
(§2) Test: 2.10^6 Acer pseudoplatanus L. cells were elicited under circular stirring (80 rpm), in 25 ml of culture medium (without 2,4-D) by 50 nM of 2′-fucosyl lactose (compound A) or 50 nM of methyl α-L-Fuc (1→2) β-D-Gal (1→2) β-D-Xyl trisaccharide (compound B)(synthesized according to Lopez et al., 1994) or for a variable time (0 to 42 hours) in the presence or not in the presence of an effector: cycloheximide (1 μM), okadaic acid (5 nM), staurosporine (500 nM), or boroglycine (500 nM). The elicitation experiment is stopped by putting the cells in ice. The cells recovered after decantation and taken up in approximately 1 ml of elicitation buffer are the subject of a specific protein extraction.
(§3) D-glycosylhydrolase extraction. The enzyme extracts are prepared from elicited or non-elicited cells. The cells are homogenized at 0° C. in Tris-HCl buffer (50 mM pH 7.2) containing 1 M of NaCl with a Vibracell™ Bioblock sonicator, maximum power, for 3 times 1 minute. The homogenates are centrifuged at 4° C. (12000 g, 15 minutes) then dialysed and concentrated on Ultrafree™ Millipore ultrafiltration units (cut-off threshold 10 kDa). The retentates, taken up in distilled water, are crude extracts.
1,4 β-D-glucanase activity assay. This is based on colorimetric assay (ferricyanide test of Kidby and Davidson (1973) of the cellopentaose substrate reducing units released during the hydrolysis. The reaction medium contains the enzyme extract (1 μg of proteins), reduced cellopentaose (4 μM) in 100 μl of sodium acetate buffer (0.1 M), pH 5.0); the enzymatic reaction at 40° C. develops over a variable time (1 to 3 hours).
(§4) Evaluation of the experimental data. At least 2 kinetics were carried out per sample, and per set of experiments. The reaction rate (ΔA410 minutes^−1 for example) is obtained by linear regression from 4 kinetic curves. The results are expressed by the ratio R (enzymatic activity in elicited cells/enzymatic activity in non-elicited control cells).

Assay [2] relates to 1,3 β-D-glucanase (EC 3.2.1.39). Kind of assay: Induction of a 1,3 β-D-glucanase response in elicited cells. The following applies: 50 nM elicitor; for 1,3 β-D-glucanase response R: 42 hours; for 1,3 β-D-glucanase early response R: after 20 minutes. As for the experimental part: as §1, §2, §3
1,3 β-D-glucanase activity assay. This is based on colorimetric assay (ferricyanide test of Kidby and Davidson (1973) of the substrate reducing units (laminarin or laminarin hexamer) released during the hydrolysis. The reaction medium contains the enzyme extract (1 μg of proteins), the substrate (5 μM of reduced laminarin hexamer) in 100 μl of sodium acetate buffer (0.1 M), pH 5.0); the enzymatic reaction at 40° C. develops over a variable time (1 to 3 hours).
as §4

In assay [3] the test system is endochitinase (EC 3.2.1.14). Kind of assay: Induction of an endochitinase response in elicited cells. The following applies: 50 nM elicitor; for Endochitinase response: 42 hours; for Endochitinase early response R: after approximately 25 minutes. As for the experimental part: as §1, §2, §3
Endochitinase activity assay. This is based on the released reducing sugar assay according to Somogyi (1952). The reaction medium contains the enzyme extract (1 μg of proteins), the substrate (25 μg of chitin) in 100 μl of sodium acetate buffer (0.1 M), pH 5.0; the enzymatic reaction at 40° C. develops over a variable time (1 to 5 hours).
as §4

On to `C[C@@H]1O[C@@H](O[C@H]2[C@H](O[C@H]3[C@H](O)[C@@H](O)[C@H](O)O[C@@H]3CO)O[C@H](CO)[C@H](O)[C@@H]2O)[C@@H](O)[C@H](O)[C@@H]1O` [compound A, α-L-Fuc(1→2)β-D-Gal(1→4)β-D-Glc], for which, in the assay with papain (EC 3.4.22.2), the “Papain inhibitor potential, early reaction” value is given as “same papain inhibitor potential” and the “Papain inhibitor potential, late reaction” value is recorded as “lower intensity”. Also, in assay [1], the “1,4 β-D-glucanase response R” value is approximately 4 and the “1,4 β-D-glucanase early response R” value is approximately 5. In assay [2], the “1,3 β-D-glucanase response R” value is approximately 12 and the “1,3 β-D-glucanase early response R” value is reported as approximately 3. In addition, in assay [3], the Endochitinase response result is recorded as “no enzymatic activation was detected” and the “Endochitinase early response R” value is recorded as approximately 6.

For the molecule `CO[C@@H]1OC[C@@H](O)[C@H](O)[C@H]1O[C@@H]1O[C@H](CO)[C@H](O)[C@H](O)[C@H]1O[C@@H]1O[C@@H](C)[C@@H](O)[C@@H](O)[C@@H]1O` [compound B, methyl α-L-Fuc (1→2)β-D-Gal (1→2)β-D-Xyl], in the assay with papain (EC 3.4.22.2), the “Papain inhibitor potential, early reaction” value is on record as “same papain inhibitor potential” and the “Papain inhibitor potential, late reaction” value is given as “lower intensity”. Moreover, in assay [1], the “1,4 β-D-glucanase response R” value was approximately 4 and the “1,4 β-D-glucanase early response R” value was approximately 5. In assay [2], the “1,3 β-D-glucanase response R” value was approximately 12 and the “1,3 β-D-glucanase early response R” value is reported as approximately 3. In assay [3], the Endochitinase response entry is on record as “no enzymatic activation was detected” and the “Endochitinase early response R” value is reported as approximately 6.

The values above are taken from patent publication US20040023924A1, “Use of xyloglucan polymers and oligomers, and derivative compounds, as phytosanitary products and biofertilizers” (priority 2000, published 2004).
